In BindingDB's records for doi:10.1016/j.bmcl.2010.09.009 (Merck Research Laboratories, 2010) one finds IC50 data, which are given here for one molecule.

In general, IC50 refers to the concentration that gives 50% inhibition. A low value points to greater potency in that assay.

This assay can be described thus: Inhibition of PAR1-mediated aggregation of TRAP-stimulated human platelet.

In turn, `CCOC(=O)N[C@@H]1CC[C@@H]2[C@@H](C1)C[C@H]1C(=O)O[C@H](C)[C@H]1[C@H]2C=Cc1ccc(-c2ccccn2)cn1` [ethyl(1R,3aR,4aR,6R,8aR,9S,9aS)-9-((E)-2-(2,3'-bipyridin-6'-yl)vinyl)-1-methyl-3-oxododecahydronaphtho[2,3-c]furan-6-ylcarbamate] showed a 50% inhibitory concentration (IC50) of 0.18 µM.
